Columns and labels:
[1] = molecular target: T1, p110 delta (Homo sapiens, UniProt O00329); experiment: PI3K isoform inhibition assay (fluorescence polarization), p110 delta; type: biochemical; details: Ki apparent, Morrison equation; 25 μM ATP, 10 μM PIP2
T1 construct: purchased Upstate Group, Millipore; Dundee, UK
Description: (§1) Determination of the activity of PI3 kinase activity of Formula I compounds is possible by a number of direct and indirect detection methods.
(§2) PI3K enzymatic activity was assayed by measuring the amount of product phosphatidylinositol 3,4,5-phosphate (PIP3) formed from substrate 4,5 phosphatidylinositol 4,5-phosphate (PIP2) using a fluorescence polarization displacement assay. The decrease in fluorescence polarization of a fluorescent PIP3 probe is measured as it is displaced from a PIP3-binding protein GRP-1 detector by PI3K-catalyzed product. […] The kinase reactions were initiated by the addition of 40 ng/mL p110α/p85α, 300 ng/mL p110β/p85α, 40 ng/mL p110γ, or 40 ng/mL p110δ/p85α (Upstate Group, Millipore; Dundee, UK), and 10 μM PIP2 (Echelon Biosciences) to the wells. […] After 60 minutes of incubation at room temperature to allow equilibration of labeled and unlabeled PIP3 binding, the parallel and perpendicular components of the fluorescence emissions from each sample were measured at an excitation wavelength of 530 nm and an emission wavelength of 590 nm using an Envision fluorescent plate reader with a rhodamine filter (PerkinElmer Life and Analytical Sciences; Wellesley, Mass.). The assay is capable of detecting 0.1-2.0 μM PIP3 product. The Ki apparent values were obtained by fitting the dose-dependent inhibition data to the Morrison equation for tight-binding, competitive inhibitors. Reference: R. A. Copeland, Enzymes. “A Practical Introduction to Structure, Mechanism and Data Analysis”.
The Formula I compound was serially diluted in 100% DMSO. The kinase reaction was incubated for 1 h at room temperature, and the reaction was terminated by the addition of PBS. IC50 values were subsequently determined using sigmoidal dose-response curve fit (variable slope). […]

[2] = molecular target: T2, p110 alpha (Homo sapiens, UniProt P42336); experiment: PI3K isoform inhibition assay (fluorescence polarization), p110 alpha; type: biochemical; details: delta/alpha selectivity ratio
T2 construct: purchased Upstate Group, Millipore; Dundee, UK
Description: as §1, §2
The same protocol may be used to establish Ki values for p110α (alpha) PI3K binding.
The four Class I PI 3-kinases are cloned into baculovirus vectors as follows: […]

T2 sequence (P42336 whole entry, species assumed, canonical isoform): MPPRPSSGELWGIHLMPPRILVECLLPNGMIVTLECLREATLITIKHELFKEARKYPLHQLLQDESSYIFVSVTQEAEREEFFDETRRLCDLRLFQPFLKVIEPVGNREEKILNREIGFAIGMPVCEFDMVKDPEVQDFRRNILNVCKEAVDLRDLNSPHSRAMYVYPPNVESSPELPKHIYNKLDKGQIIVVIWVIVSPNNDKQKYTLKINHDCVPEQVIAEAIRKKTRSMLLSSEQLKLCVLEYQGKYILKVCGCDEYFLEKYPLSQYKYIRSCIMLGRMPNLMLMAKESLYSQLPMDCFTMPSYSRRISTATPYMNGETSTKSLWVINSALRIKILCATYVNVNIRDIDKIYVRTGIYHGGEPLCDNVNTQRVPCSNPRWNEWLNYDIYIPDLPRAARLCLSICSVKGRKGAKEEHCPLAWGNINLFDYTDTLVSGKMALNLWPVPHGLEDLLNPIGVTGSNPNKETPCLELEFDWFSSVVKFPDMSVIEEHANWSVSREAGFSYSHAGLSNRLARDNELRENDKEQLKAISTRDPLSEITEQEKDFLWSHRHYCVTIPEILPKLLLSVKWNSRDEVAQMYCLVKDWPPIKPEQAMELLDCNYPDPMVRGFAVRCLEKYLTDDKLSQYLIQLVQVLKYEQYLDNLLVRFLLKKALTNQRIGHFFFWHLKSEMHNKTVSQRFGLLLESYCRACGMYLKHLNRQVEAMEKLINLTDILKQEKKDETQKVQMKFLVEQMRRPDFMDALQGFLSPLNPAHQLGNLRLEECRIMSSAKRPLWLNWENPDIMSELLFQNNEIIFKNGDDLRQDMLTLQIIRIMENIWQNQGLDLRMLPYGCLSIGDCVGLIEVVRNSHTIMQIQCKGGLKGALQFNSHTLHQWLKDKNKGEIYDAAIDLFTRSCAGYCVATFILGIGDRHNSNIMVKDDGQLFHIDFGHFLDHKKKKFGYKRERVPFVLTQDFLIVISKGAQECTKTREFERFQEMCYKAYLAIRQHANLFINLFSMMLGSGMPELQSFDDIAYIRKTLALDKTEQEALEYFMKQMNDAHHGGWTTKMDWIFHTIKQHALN
T2 sequence (P27986 whole entry partner, species assumed, canonical isoform): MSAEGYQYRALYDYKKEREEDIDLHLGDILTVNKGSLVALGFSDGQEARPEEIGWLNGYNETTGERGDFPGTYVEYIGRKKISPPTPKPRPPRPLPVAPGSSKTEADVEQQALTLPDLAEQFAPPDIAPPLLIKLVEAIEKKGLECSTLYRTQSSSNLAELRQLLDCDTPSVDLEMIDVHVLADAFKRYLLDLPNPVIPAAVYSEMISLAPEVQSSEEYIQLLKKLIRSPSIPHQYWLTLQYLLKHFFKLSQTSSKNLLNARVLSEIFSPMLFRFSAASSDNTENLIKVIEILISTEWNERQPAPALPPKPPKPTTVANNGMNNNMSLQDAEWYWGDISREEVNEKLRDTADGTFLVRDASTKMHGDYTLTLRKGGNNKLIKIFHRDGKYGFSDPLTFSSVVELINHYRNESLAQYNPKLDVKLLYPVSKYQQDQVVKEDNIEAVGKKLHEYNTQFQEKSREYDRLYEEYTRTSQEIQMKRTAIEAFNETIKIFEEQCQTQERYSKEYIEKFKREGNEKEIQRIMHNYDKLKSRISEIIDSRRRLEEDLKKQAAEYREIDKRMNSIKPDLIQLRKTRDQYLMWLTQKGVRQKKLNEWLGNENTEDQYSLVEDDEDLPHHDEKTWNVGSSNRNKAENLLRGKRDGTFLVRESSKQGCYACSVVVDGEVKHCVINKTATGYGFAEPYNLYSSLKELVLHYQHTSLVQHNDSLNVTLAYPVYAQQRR
T1 sequence (O00329 whole entry, canonical isoform): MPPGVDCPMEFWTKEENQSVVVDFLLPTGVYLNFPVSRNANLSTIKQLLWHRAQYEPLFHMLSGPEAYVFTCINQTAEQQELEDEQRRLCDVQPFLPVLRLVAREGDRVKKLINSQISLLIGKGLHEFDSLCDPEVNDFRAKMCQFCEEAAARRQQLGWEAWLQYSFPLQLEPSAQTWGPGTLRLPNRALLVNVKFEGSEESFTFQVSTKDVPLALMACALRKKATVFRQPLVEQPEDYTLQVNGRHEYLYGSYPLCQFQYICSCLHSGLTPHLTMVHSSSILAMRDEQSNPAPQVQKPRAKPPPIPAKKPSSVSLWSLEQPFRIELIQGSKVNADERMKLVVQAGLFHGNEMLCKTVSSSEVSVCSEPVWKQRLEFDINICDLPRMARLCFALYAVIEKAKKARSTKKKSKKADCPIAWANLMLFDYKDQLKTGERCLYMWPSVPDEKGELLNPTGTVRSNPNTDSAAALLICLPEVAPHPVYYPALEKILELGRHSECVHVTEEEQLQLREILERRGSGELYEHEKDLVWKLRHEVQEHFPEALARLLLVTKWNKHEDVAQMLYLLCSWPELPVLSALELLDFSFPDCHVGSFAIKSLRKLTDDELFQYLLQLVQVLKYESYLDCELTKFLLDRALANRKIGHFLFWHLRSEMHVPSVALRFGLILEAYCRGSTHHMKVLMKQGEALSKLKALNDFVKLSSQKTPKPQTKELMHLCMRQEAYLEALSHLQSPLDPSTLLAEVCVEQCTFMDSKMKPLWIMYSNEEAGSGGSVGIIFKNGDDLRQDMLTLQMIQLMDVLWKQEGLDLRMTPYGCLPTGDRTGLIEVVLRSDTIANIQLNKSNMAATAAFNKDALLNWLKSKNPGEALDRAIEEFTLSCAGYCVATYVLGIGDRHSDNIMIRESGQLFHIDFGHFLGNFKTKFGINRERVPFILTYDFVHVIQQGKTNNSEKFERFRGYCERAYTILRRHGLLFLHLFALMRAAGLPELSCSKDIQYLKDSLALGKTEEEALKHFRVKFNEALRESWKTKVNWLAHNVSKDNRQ
T1 sequence (P27986 whole entry partner, canonical isoform): as the sequence (P27986 whole entry partner, species assumed, canonical isoform) above

SMILES | Ki [1] [nM] | Ki p110 alpha/ Ki p110 delta [2]
CCc1nc2ccccc2n1-c1nc(N2CCOCC2)c2nc(OC3CN(C(=O)[C@H](C)O)C3)n(C)c2n1 [Compound 129, (S)-1-(3-(2-(2-ethyl-1H-benzo[d]imidazol-1-yl)-9-methyl-6-morpholino-9H-purin-8-yloxy)azetidin-1-yl)-2-hydroxypropan-1-one] | 1.42 | 87
CCc1nc2ccccc2n1-c1nc(N2CCOCC2)c2nc(OC3CCN(C4COC4)CC3)n(C)c2n1 [Compound 109, 4-(2-(2-ethyl-1H-benzo[d]imidazol-1-yl)-9-methyl-8-(1-(oxetan-3-yl)piperidin-4-yloxy)-9H-purin-6-yl)morpholine] | 1.15 | 32.2
CO[C@H](C)c1nc2ccccc2n1-c1nc(N2CCOCC2)c2nc(OC3CN(C4CCS(=O)(=O)CC4)C3)n(C)c2n1 [Compound 142, (R)-4-(2-(2-(1-methoxyethyl)-1H-benzo[d]imidazol-1-yl)-9-methyl-8-(1-(1,1-dioxo-tetrahydro-2H-thiopyran-4-yl)azetidin-3-yloxy)-9H-purin-6-yl)morpholine] | 1.61 | 96
CC(C)C(=O)N1CC(Oc2nc3c(N4CCOCC4)nc(-n4c(C(C)(F)F)nc5ccccc54)nc3n2C)C1 [Compound 132, 1-(3-(2-(2-(1,1-difluoroethyl)-1H-benzo[d]imidazol-1-yl)-9-methyl-6-morpholino-9H-purin-8-yloxy)azetidin-1-yl)-2-methylpropan-1-one] | 0.929 | 31
CCc1nc2ccccc2n1-c1nc(N2CCOCC2)c2nc(OC3CCNCC3)n(C)c2n1 [Compound 124, 4-(2-(2-ethyl-1H-benzo[d]imidazol-1-yl)-9-methyl-8-(piperidin-4-yloxy)-9H-purin-6-yl)morpholine] | 0.91 | 188
CCc1nc2ccccc2n1-c1nc(N2CCOCC2)c2nc(OC3CCN(C(=O)C4CC4)CC3)n(C)c2n1 [Compound 110, cyclopropyl(4-(2-(2-ethyl-1H-benzo[d]imidazol-1-yl)-9-methyl-6-morpholino-9H-purin-8-yloxy)piperidin-1-yl)methanone] | 1.05 | 98
CCc1nc2ccccc2n1-c1nc(N2CCOCC2)c2nc(OC3CN(C(=O)C4(C#N)CC4)C3)n(C)c2n1 [Compound 150, 1-(3-(2-(2-ethyl-1H-benzo [d]imidazol-1-yl)-9-methyl-6-morpholino-9H-purin-8-yloxy)azetidine-1-carbonyl) cyclopropanecarbonitrile] | 2.86 | 30
CC(C)C(=O)N1CC(Oc2nc3c(N4CCOCC4)nc(-c4c(F)ccc5[nH]ccc45)nc3n2C)C1 [Compound 126, 1-(3-(2-(5-fluoro-1H-indol-4-yl)-9-methyl-6-morpholino-9H-purin-8-yloxy)azetidin-1-yl)-2-methylpropan-1-one] | 1 | 88
CCc1nc2ccccc2n1-c1nc(N2CCOCC2)c2nc(OC3CCN(C(=O)C(C)C)CC3)n(C)c2n1 [Compound 108, 1-(4-(2-(2-ethyl-1H-benzo[d]imidazol-1-yl)-9-methyl-6-morpholino-9H-purin-8-yloxy)piperidin-1-yl)-2-methylpropan-1-one] | 0.494 | 177
CCc1nc2ccccc2n1-c1nc(N2CCOCC2)c2nc(OC3CN(S(=O)(=O)C4CC4)C3)n(C)c2n1 [Compound 118, 4-(8-(1-(cyclopropylsulfonyl)azetidin-3-yloxy)-2-(2-ethyl-1H-benzo[d]imidazol-1-yl)-9-methyl-9H-purin-6-yl)morpholine] | 0.539 | 76
CCc1nc2ccccc2n1-c1nc(N2CCOCC2)c2nc(OC3CN(C(=O)C4CC4)C3)n(C)c2n1 [Compound 119, Cyclopropyl(3-(2-(2-ethyl-1H-benzo[d]imidazol-1-yl)-9-methyl-6-morpholino-9H-purin-8-yloxy)azetidin-1-yl)methanone] |  | 115
Cc1nc2ccccc2n1-c1nc(N2CCOCC2)c2nc(OC3CCN(C4CCOCC4)CC3)n(C)c2n1 [Compound 127, 4-(9-methyl-2-(2-methyl-1H-benzo[d]imidazol-1-yl)-8-(1-(tetrahydro-2H-pyran-4-yl)piperidin-4-yloxy)-9H-purin-6-yl)morpholine] | 0.252 | 105
CCc1nc2ccccc2n1-c1nc(N2CCOCC2)c2nc(OC3CN(C(=O)C4(C)CC4)C3)n(C)c2n1 [Compound 145, (3-(2-(2-ethyl-1H-benzo [d]imidazol-1-yl)-9-methyl-6-morpholino-9H-purin-8-yloxy)azetidin-1-yl)(1-methylcyclopropyl)methanone] | 0.826 | 100
CCc1nc2ccccc2n1-c1nc(N2CCOCC2)c2nc(OC3CCN(C(C)=O)CC3)n(C)c2n1 [Compound 102, 1-(4-(2-(2-ethyl-1H-benzo[d]imidazol-1-yl)-9-methyl-6-morpholino-9H-purin-8-yloxy)piperidin-1-yl)ethanone] | 1.02 | 81
Cn1c(OC2CN(C3CCS(=O)(=O)CC3)C2)nc2c(N3CCOCC3)nc(-n3c(CCO)nc4ccccc43)nc21 [Compound 136, 2-(1-(9-methyl-6-morpholino-8-(1-(1,1-dioxo-tetrahydro-2H-thiopyran-4-yl)azetidin-3-yloxy)-9H-purin-2-yl)-1H-benzo[d]imidazol-2-yl)ethanol] | 4.94 | 90
CCc1nc2ccccc2n1-c1nc(N2CCOCC2)c2nc(OC3CN(C4CC[S+]([O-])CC4)C3)n(C)c2n1 (single isomer, unassigned) [Compound 123, 4-(2-(2-ethyl-1H-benzo[d]imidazol-1-yl)-9-methyl-8-(1-(1-oxo-tetrahydro-2H-thiopyran-4-yl)azetidin-3-yloxy)-9H-purin-6-yl)morpholine] | 0.657 | 178
CC(C)C(=O)N1CC(Oc2nc3c(N4CCOCC4)nc(-n4c(CCO)nc5ccccc54)nc3n2C)C1 [Compound 138, 1-(3-(2-(2-(2-hydroxyethyl)-1H-benzo[d]imidazol-1-yl)-9-methyl-6-morpholino-9H-purin-8-yloxy)azetidin-1-yl)-2-methylpropan-1-one] | 3.91 | 68
CCc1nc2ccccc2n1-c1nc(N2CCOCC2)c2nc(OC3CN(C(=O)C(C)C)C3C)n(C)c2n1 (centres unmarked) [Compound 149, 1-(3-(2-(2-ethyl-1H-benzo [d]imidazol-1-yl)-9-methyl-6-morpholino-9H-purin-8-yloxy)-2-methylazetidin-1-yl)-2-methylpropan-1-one] | 0.444 | 277
CCc1nc2ccccc2n1-c1nc(N2CCOCC2)c2nc(OC3CN(C(=O)C4(COC)CC4)C3)n(C)c2n1 [Compound 156, (3-(2-(2-ethyl-1H-benzo[d]imidazol-1-yl)-9-methyl-6-morpholino-9H-purin-8-yloxy)azetidin-1-yl)(1-(methoxymethyl)cyclopropyl) methanone] | 0.539 | 76
CCc1nc2ccccc2n1-c1nc(N2CCOCC2)c2nc(OC3CN(C(=O)[C@@H](C)OC)C3)n(C)c2n1 [Compound 117, (R)-1-(3-(2-(2-ethyl-1H-benzo[d]imidazol-1-yl)-9-methyl-6-morpholino-9H-purin-8-yloxy)azetidin-1-yl)-2-methoxypropan-1-one] | 0.503 | 132
CC(C)c1nc2ccccc2n1-c1nc(N2CCOCC2)c2nc(OC3CN(C4CCOCC4)C3)n(C)c2n1 [Compound 104, 4-(2-(2-isopropyl-1H-benzo[d]imidazol-1-yl)-9-methyl-8-(1-(tetrahydro-2H-pyran-4-yl)azetidin-3-yloxy)-9H-purin-6-yl)morpholine] | 0.651 | 202
CCc1nc2ccccc2n1-c1nc(N2CCOCC2)c2nc(OC3CN(C(=O)C(C)(C)N)C3)n(C)c2n1 [Compound 121, 2-amino-1-(3-(2-(2-ethyl-1H-benzo[d]imidazol-1-yl)-9-methyl-6-morpholino-9H-purin-8-yloxy)azetidin-1-yl)-2-methylpropan-1-one] | 1.29 | 51
CCc1nc2ccccc2n1-c1nc(N2CCOCC2)c2nc(OC3CN(C(=O)C(C)(C)CO)C3)n(C)c2n1 [Compound 151, 1-(3-(2-(2-ethyl-1H-benzo [d]imidazol-1-yl)-9-methyl-6-morpholino-9H-purin-8-yloxy)azetidin-1-yl)-3-hydroxy-2,2-dimethylpropan-1-one] |  | 126

— US8293736B2, “Purine compounds selective for PI3K P110 delta, and methods of use” (F. Hoffmann la Roche AG, priority 2010, dated 2012)
